By IC50 is commonly meant the concentration that gives 50% inhibition.

This note sets out measurements from patent US7935819B2, “Cyclic urea derivatives, preparation thereof and pharmaceutical use thereof as kinase inhibitors” (Aventis Pharma S.A., priority 2006, dated 2011).

For experiment [1], the target named is T1, IGF-1R (human cytoplasmic domain fused with GST) (Homo sapiens, UniProt P08069).
T1 construct: The human cytoplasmic domain of IGF-1R was cloned by fusion with glutathione S-transferase (GST); made in house; host or cells: SF21 insect cells (baculovirus, pFastBac-GST)
Kind of experiment: Kinase IGF-1R test (Test A): inhibition of autophosphorylation of the enzyme, HTRF. In kind it is biochemical. The conditions noted are these: 120 μM ATP. As for the experimental part:
A) Experimental Protocol for the Kinase IGF-1R Test:
The inhibitory activity of the compounds on IGF1R is determined by measuring the inhibition of autophosphorylation of the enzyme using a time-resolved fluorescence test (HTRF). The human cytoplasmic domain of IGF-1R was cloned by fusion with glutathione S-transferase (GST) in the baculovirus expression vector pFastBac-GST. The protein is expressed in the SF21 cells and purified to about 80% homogeneity. For the enzymatic test, the test compound at 10 mM dissolved in DMSO is diluted in 1/3 steps in a 50 mM Hepes, pH 7.5, 5 mM MnCl2, 50 mM NaCl, 3% Glycerol, 0.025% Tween 20 buffer. To measure the inhibition, the successive dilutions of the compound are preincubated for 30 minutes and 90 minutes in the presence of 5 nM of enzyme, the final DMSO concentration not exceeding 1%. The enzymatic reaction is initiated to have a final ATP concentration of 120 μM, and is stopped after 5 minutes by addition of 100 mM Hepes, pH 7.0 buffer containing 0.4 M of potassium fluoride, 133 mM EDTA, 0.1% BSA, the XL665-labelled antibody anti-GST and the anti-phosphotyrosine antibody conjugated to europium cryptate Eu—K (Cis-Bio Int.). The characteristics of the two fluorophores, XL-665 and Eu—K, are available in G. Mathis et al., Anticancer Research, 1997, 17, pages 3011-3014. The energy transfer between the excited europium cryptate to the acceptor XL665 is proportional to the degree of autophosphorylation of IGF-1R. The specific long-lasting signal of XL-665 is measured in a GENios Pro TECAN plate counter. The inhibition of autophosphorylation of IGF-1R at time 30 minutes and 90 minutes with the test compounds of the invention is calculated relative to a 1% in DMSO control, whose activity is measured in the absence of compound. The curve representing the percentage of inhibition as a function of the log of the concentration is established to determine the concentration corresponding to 50% inhibition (IC50).
On the technique in general: TR-FRET usually uses a lanthanide donor and a delayed reading to cut background.

Experiment [2] concerns the target MEF-IGF1R cells (stable clone transfected with hIGF-1R) (Homo sapiens, UniProt P08069). Kind of experiment: Proliferation/viability of MEF-IGF1R (Test C), [14C]thymidine incorporation. The experiment is classed as cell-based. The conditions noted are these: rhIGF1 100 ng/mL, 72 hours, read-out: Test C IC50. As for the experimental part:
C) Measurement of the Proliferation/Viability of MEF-IGF1R
Cell culture: the MEF-IGF1R cells (stable clone of cells transfected with the receptor hIGF-1R) are cultured at 37° C. under 5% CO2 in EMEM medium containing 10% FCS.
Test procedure: the cells are seeded at 5000 cells per well in 96-well Cytostar plates (Amersham) with 0.2 mL of EMEM culture medium at 37° C. for 18 hours. The cells are then washed twice with EMEM medium and left to culture without serum for 24 hours. The compounds are then added at various concentrations in the presence of rhIGF1 (100 ng/mL) and 0.1 μCi of Thymidine [^14C] (specific activity ˜50 mCi/mmol) to give 0.2 mL of volume per well. After incubation for 72 hours in the presence of the compound, at 37° C. under 5% CO2, the incorporation of Thymidine [^14C] is measured by counting the radioactivity on a Microbeta trilux counter (Perkin-Elmer). The IC50 is determined from 10 increasing concentrations of the compound.
(i) The tests are performed in duplicate and the mean of the two tests is calculated.
(ii) The value of the signal of the maximum response is calculated from the positive control: cells stimulated with IGF1 without compound.
(iii) Value of the signal of the minimum response is calculated from the negative control: cells not stimulated with IGF1 without compound.
(iv) By using these values as maximum (100%) and minimum (0%), respectively, the data were normalized so as to give a percentage of the maximum response.
(v) A curve of dose response is plotted and the IC50 (the concentration of which the compound induces a 50% decrease in the signal) of the compound is calculated by non-linear regression analysis.
A general note: Dividing cells build labelled thymidine or BrdU into new DNA.

The mark [3] stands for this setting: preincubation with enzyme 30 minutes, read-out: Test A 30′ IC50.
Setting [4] is: preincubation with enzyme 90 minutes, read-out: Test A 90′ IC50.

Like-named read-outs stand apart in the source and are kept apart here.

T1 sequence (P08069 960-1367 limits assumed): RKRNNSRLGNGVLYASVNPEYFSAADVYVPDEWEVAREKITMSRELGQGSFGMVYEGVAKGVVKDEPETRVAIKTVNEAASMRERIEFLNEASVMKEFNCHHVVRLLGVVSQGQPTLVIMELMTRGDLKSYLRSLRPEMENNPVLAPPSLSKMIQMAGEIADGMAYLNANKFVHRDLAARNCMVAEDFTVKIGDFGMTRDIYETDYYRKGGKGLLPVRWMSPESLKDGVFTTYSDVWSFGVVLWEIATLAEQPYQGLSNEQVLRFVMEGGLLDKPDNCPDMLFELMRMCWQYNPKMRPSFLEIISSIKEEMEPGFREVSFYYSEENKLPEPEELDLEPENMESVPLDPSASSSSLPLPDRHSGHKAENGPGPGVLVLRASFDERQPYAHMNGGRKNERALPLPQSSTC
Sequence of MEF-IGF1R cells (stable clone transfected with hIGF-1R) (P08069 whole entry, change not shown): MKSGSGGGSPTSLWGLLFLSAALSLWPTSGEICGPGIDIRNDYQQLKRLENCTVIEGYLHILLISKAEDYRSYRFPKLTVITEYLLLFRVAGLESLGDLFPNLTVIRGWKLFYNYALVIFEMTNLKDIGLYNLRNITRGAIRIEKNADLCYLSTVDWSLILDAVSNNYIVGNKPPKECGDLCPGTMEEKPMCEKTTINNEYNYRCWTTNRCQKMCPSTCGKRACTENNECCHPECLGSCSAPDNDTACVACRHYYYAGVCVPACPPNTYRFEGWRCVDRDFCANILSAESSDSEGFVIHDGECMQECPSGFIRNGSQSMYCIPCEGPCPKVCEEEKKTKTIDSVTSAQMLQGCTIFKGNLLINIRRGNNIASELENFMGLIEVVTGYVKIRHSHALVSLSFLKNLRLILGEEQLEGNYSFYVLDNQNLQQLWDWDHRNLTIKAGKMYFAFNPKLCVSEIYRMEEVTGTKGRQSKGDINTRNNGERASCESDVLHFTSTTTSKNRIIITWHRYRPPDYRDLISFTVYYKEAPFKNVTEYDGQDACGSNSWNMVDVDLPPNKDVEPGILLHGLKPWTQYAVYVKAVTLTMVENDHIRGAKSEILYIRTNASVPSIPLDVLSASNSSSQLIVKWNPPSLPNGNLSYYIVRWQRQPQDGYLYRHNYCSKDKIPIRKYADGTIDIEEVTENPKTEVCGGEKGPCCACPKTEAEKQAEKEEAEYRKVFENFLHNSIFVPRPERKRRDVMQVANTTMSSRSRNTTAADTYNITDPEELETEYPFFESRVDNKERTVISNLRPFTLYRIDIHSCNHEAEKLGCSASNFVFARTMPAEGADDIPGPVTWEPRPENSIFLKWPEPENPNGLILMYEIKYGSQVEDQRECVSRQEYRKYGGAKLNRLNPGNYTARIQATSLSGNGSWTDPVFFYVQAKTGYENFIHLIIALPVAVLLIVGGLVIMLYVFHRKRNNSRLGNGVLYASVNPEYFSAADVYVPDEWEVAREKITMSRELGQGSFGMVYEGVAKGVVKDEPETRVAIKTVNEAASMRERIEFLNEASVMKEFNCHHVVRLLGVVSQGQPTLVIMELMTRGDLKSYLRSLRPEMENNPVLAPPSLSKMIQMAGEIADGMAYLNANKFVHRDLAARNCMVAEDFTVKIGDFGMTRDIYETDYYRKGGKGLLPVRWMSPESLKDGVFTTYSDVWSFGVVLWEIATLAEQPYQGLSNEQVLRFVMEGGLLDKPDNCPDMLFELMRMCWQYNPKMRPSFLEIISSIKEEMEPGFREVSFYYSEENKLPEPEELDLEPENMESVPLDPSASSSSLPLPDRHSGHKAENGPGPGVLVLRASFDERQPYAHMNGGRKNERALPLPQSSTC

As for `CC(C)(C)c1ccc(N2C(=O)N(Cc3ccnc(N)n3)C(C)(C)C2=O)cc1` [Example 1 Stage f), 1-[(2-aminopyrimidin-4-yl)methyl]-3-(4-tert-butylphenyl)-5,5-dimethylimidazolidine-2,4-dione], the IC50 in experiment [1] (setting [3]) and in experiment [1] (setting [4]) was 10 to 100 nM in each case. Moreover, the GI50 in experiment [2] is over 100 nM.
Turning to `CN(C)C(=O)Nc1nccc(CN2C(=O)N(c3ccc(C(C)(C)C)cc3)C(=O)C2(C)C)n1` [Example 2, 3-(4-{[3-(4-tert-butylphenyl)-5,5-dimethyl-2,4-dioxoimidazolidin-1-yl]methyl}pyrimidin-2-yl)-1,1-dimethylurea], the half-inhibitory concentration (IC50) in experiment [1] (setting [3]) and in experiment [1] (setting [4]) was over 100 nM in each case. For the same compound, in experiment [2], the GI50 is over 100 nM.
`CN(C)C(=O)Nc1cc(CN2C(=O)N(c3ccc4c(c3)N(C(=O)CNC3CCCC3)CC4(C)C)C(=O)C2(C)C)ccn1` [Example 3, 3-[4-({3-[1-(N-cyclopentylglycyl)-3,3-dimethyl-2,3-dihydro-1H-indol-6-yl]-5,5-dimethyl-2,4-dioxoimidazolidin-1-yl}methyl)pyridin-2-yl]-1,1-dimethylurea]: the figures for the IC50 in experiment [1] (setting [3]) and in experiment [1] (setting [4]) were over 100 nM and 10 to 100 nM, respectively. The GI50 in experiment [2] lay within 10 to 100 nM.
Regarding `CC1(C)CN(C(=O)CNC2CCCC2)c2cc(N3C(=O)N(Cc4ccnc(Nc5cccnc5)c4)C(C)(C)C3=O)ccc21` [Example 4, 3-[1-(N-cyclopentylglycyl)-3,3-dimethyl-2,3-dihydro-1H-indol-6-yl]-5,5-dimethyl-1-{[2-(pyridin-3-ylamino)pyridin-4-yl]methyl}imidazolidine-2,4-dione], the concentration for half-maximal inhibition (IC50) in experiment [1] (setting [3]) and in experiment [1] (setting [4]) was 10 to 100 nM each time. Also, the GI50 in experiment [2] is under 10 nM.
Consider `CC1(C)C(=O)N(c2ccc(OC(F)(F)F)c(NC(=O)[C@H](N)c3ccccc3)c2)C(=O)N1Cc1ccnc(Nc2cccnc2)c1` [Example 5a, (2R)-2-amino-N-[5-(4,4-dimethyl-2,5-dioxo-3-{[2-(pyridin-3-ylamino)pyridin-4-yl]methyl}imidazolidin-1-yl)-2-(trifluoromethoxy)phenyl]-2-phenylacetamide], for which the IC50 in experiment [1] (setting [3]) and in experiment [1] (setting [4]) was 10 to 100 nM in each case. In addition, the GI50 in experiment [2] is under 10 nM.
As to `CN(C)C(=O)Nc1cc(CN2C(=O)N(c3ccc(OC(F)(F)F)c(NC(=O)[C@H](N)c4ccccc4)c3)C(=O)C2(C)C)ccn1` [Example 6a, (2R)-2-amino-N-{5-[3-({2-[(dimethylcarbamoyl)amino]pyridin-4-yl}methyl)-4,4-dimethyl-2,5-dioxoimidazolidin-1-yl]-2-(trifluoromethoxy)phenyl}-2-phenylacetamide], the values for the IC50 in experiment [1] (setting [3]) and in experiment [1] (setting [4]) were over 100 nM and 10 to 100 nM, respectively. Also, the GI50 in experiment [2] is under 10 nM.
With `CC(C)(C)c1ccc(N2C(=O)N(Cc3ccnc(Nc4cncnc4)c3)C(C)(C)C2=O)cc1` [Example 7, 3-(4-tert-butylphenyl)-5,5-dimethyl-1-{[2-(pyrimidin-5-ylamino)pyridin-4-yl]methyl}imidazolidine-2,4-dione], the IC50 in experiment [1] (setting [3]) and in experiment [1] (setting [4]) was 10 to 100 nM each time. Further, in experiment [2], the GI50 is over 100 nM.
In the case of `CC(C)(C)c1ccc(N2C(=O)N(Cc3ccnc(NC(=O)NCCCN4CCCC4)c3)C(C)(C)C2=O)cc1` [Example 9, 1-(4-{[3-(4-tert-butylphenyl)-5,5-dimethyl-2,4-dioxoimidazolidin-1-yl]methyl}pyridin-2-yl)-3-(3-pyrrolidin-1-ylpropyl)urea], the IC50 in experiment [1] (setting [3]) and in experiment [1] (setting [4]) was 10 to 100 nM throughout. The GI50 in experiment [2] is over 100 nM.
For `CC(C)(C)c1ccc(N2C(=O)N(Cc3ccnc(NC(=O)NC4CCCC4)c3)C(C)(C)C2=O)cc1` [Example 10, 1-(4-{[3-(4-tert-butylphenyl)-5,5-dimethyl-2,4-dioxoimidazolidin-1-yl]methyl}pyridin-2-yl)-3-cyclopentylurea], the IC50 in experiment [1] (setting [3]) and in experiment [1] (setting [4]) was 10 to 100 nM throughout. Further, the GI50 in experiment [2] is over 100 nM.
On to `CC(C)(C)c1ccc(N2C(=O)N(Cc3ccnc(NC(=O)NCCN4CCCC4)c3)C(C)(C)C2=O)cc1` [Example 11, 1-(4-{[3-(4-tert-butylphenyl)-5,5-dimethyl-2,4-dioxoimidazolidin-1-yl]methyl}pyridin-2-yl)-3-(2-pyrrolidin-1-ylethyl)urea], for which the IC50 in experiment [1] (setting [3]) and in experiment [1] (setting [4]) was 10 to 100 nM throughout. Moreover, in experiment [2], the GI50 is over 100 nM.
Regarding `CC(C)(C)c1ccc(N2C(=O)N(Cc3ccnc(NC(=O)NCCCCN4CCCC4)c3)C(C)(C)C2=O)cc1` [Example 12, 1-(4-{[3-(4-tert-butylphenyl)-5,5-dimethyl-2,4-dioxoimidazolidin-1-yl]methyl}pyridin-2-yl)-3-(4-pyrrolidin-1-ylbutyl)urea], the IC50 was 10 to 100 nM in experiment [1] (setting [3]) and under 10 nM in experiment [1] (setting [4]). In addition, the GI50 in experiment [2] is over 100 nM.
As to `CC(C)(C)c1ccc(N2C(=O)N(Cc3ccnc(NC(=O)NC4CCCCC4)c3)C(C)(C)C2=O)cc1` [Example 16, 1-(4-{[3-(4-tert-butylphenyl)-5,5-dimethyl-2,4-dioxoimidazolidin-1-yl]methyl}pyridin-2-yl)-3-cyclohexylurea], the results for the IC50 in experiment [1] (setting [3]) and in experiment [1] (setting [4]) were over 100 nM and 10 to 100 nM, respectively. The GI50 in experiment [2] is over 100 nM.
Turning to `CC(C)(C)c1ccc(N2C(=O)N(Cc3ccnc(NC(=O)N4CCOCC4)c3)C(C)(C)C2=O)cc1` [Example 20, N-(4-{[3-(4-tert-butylphenyl)-5,5-dimethyl-2,4-dioxoimidazolidin-1-yl]methyl}pyridin-2-yl)morpholine-4-carboxamide], the IC50 in experiment [1] (setting [3]) was 10 to 100 nM; in experiment [1] (setting [4]), under 10 nM. Moreover, in experiment [2], the GI50 is over 100 nM.
Take `CCCCN(C)C(=O)Nc1cc(CN2C(=O)N(c3ccc(C(C)(C)C)cc3)C(=O)C2(C)C)ccn1` [Example 27, 1-butyl-3-(4-{[3-(4-tert-butylphenyl)-5,5-dimethyl-2,4-dioxoimidazolidin-1-yl]methyl}pyridin-2-yl)-1-methylurea]: the IC50 in experiment [1] (setting [3]) and in experiment [1] (setting [4]) was 10 to 100 nM in each case. Moreover, in experiment [2], the GI50 was over 100 nM.
On to `CC(C)(C)c1ccc(N2C(=O)N(Cc3ccnc(Nc4cncc(F)c4)c3)C(C)(C)C2=O)cc1` [Example 31A, 3-(4-tert-butylphenyl)-1-({2-[(5-fluoropyridin-3-yl)amino]pyridin-4-yl}methyl)-5,5-dimethylimidazolidine-2,4-dione], for which the IC50 in experiment [1] (setting [3]) and in experiment [1] (setting [4]) was 10 to 100 nM in each case. Moreover, in experiment [2], the GI50 was over 100 nM.
